Assay results taken from PubChem BioAssay (NCI).
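Each compound was tested at five concentrations against cells in 96-well plates for 48 hours. TGI marks complete inhibition of growth.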

How the values were obtained:
Assay in all cases: DTP human tumour cell line panel, 48 h
786-0 renal = test system: 786-0 renal
A498 renal = test system: A498 renal
A549 NSCLC = test system: A549 NSCLC
ACHN renal = test system: ACHN renal
BT-549 breast = test system: BT-549 breast
CAKI-1 renal = test system: CAKI-1 renal
CCRF-CEM leukemia = test system: CCRF-CEM leukemia
COLO 205 colon = test system: COLO 205 colon
DU-145 prostate = test system: DU-145 prostate
EKVX NSCLC = test system: EKVX NSCLC
HCT-116 colon = test system: HCT-116 colon
HCT-15 colon = test system: HCT-15 colon
HOP-62 NSCLC = test system: HOP-62 NSCLC
HOP-92 NSCLC = test system: HOP-92 NSCLC
HS 578T breast = test system: HS 578T breast
HT29 colon = test system: HT29 colon
IGROV1 ovarian = test system: IGROV1 ovarian
K-562 leukemia = test system: K-562 leukemia
KM12 colon = test system: KM12 colon
LOX IMVI melanoma = test system: LOX IMVI melanoma
M14 melanoma = test system: M14 melanoma
MALME-3M melanoma = test system: MALME-3M melanoma
MCF7 breast = test system: MCF7 breast
MDA-MB-231 breast = test system: MDA-MB-231 breast
MDA-MB-435 = test system: MDA-MB-435
MDA-N = test system: MDA-N
MOLT-4 leukemia = test system: MOLT-4 leukemia
NCI-H226 lung = test system: NCI-H226 lung
NCI-H23 lung = test system: NCI-H23 lung
NCI-H460 lung = test system: NCI-H460 lung
NCI-H522 lung = test system: NCI-H522 lung
NCI/ADR-RES ovarian = test system: NCI/ADR-RES ovarian
OVCAR-3 ovarian = test system: OVCAR-3 ovarian
OVCAR-4 ovarian = test system: OVCAR-4 ovarian
OVCAR-5 ovarian = test system: OVCAR-5 ovarian
OVCAR-8 ovarian = test system: OVCAR-8 ovarian
PC-3 prostate = test system: PC-3 prostate
RPMI-8226 leukemia = test system: RPMI-8226 leukemia
RXF 393 renal = test system: RXF 393 renal
SF-268 CNS = test system: SF-268 CNS
SF-295 CNS = test system: SF-295 CNS
SF-539 CNS = test system: SF-539 CNS
SK-MEL-2 melanoma = test system: SK-MEL-2 melanoma
SK-MEL-28 melanoma = test system: SK-MEL-28 melanoma
SK-MEL-5 melanoma = test system: SK-MEL-5 melanoma
SK-OV-3 ovarian = test system: SK-OV-3 ovarian
SN12C renal = test system: SN12C renal
SNB-75 CNS = test system: SNB-75 CNS
SR leukemia = test system: SR leukemia
SW-620 colon = test system: SW-620 colon
T-47D breast = test system: T-47D breast
TK-10 renal = test system: TK-10 renal
U251 CNS = test system: U251 CNS
UACC-257 melanoma = test system: UACC-257 melanoma
UACC-62 melanoma = test system: UACC-62 melanoma
UO-31 renal = test system: UO-31 renal
HL-60(TB) leukemia = test system: HL-60(TB) leukemia
SNB-19 CNS = test system: SNB-19 CNS

CCOC(=O)Oc1cc2ccsc2c2c1c1ccccc1n2C(=O)OCC
TGI (786-0 renal): > 100 µM | TGI (A498 renal): 32.6 µM | TGI (A549 NSCLC): > 100 µM | TGI (ACHN renal): 98.1 µM | TGI (BT-549 breast): > 100 µM | TGI (CAKI-1 renal): > 100 µM | TGI (CCRF-CEM leukemia): > 100 µM | TGI (COLO 205 colon): > 100 µM | TGI (DU-145 prostate): > 100 µM | TGI (EKVX NSCLC): > 100 µM | TGI (HCT-116 colon): > 100 µM | TGI (HCT-15 colon): > 100 µM | TGI (HOP-62 NSCLC): > 100 µM | TGI (HOP-92 NSCLC): 44.7 µM | TGI (HS 578T breast): > 100 µM | TGI (HT29 colon): > 100 µM | TGI (IGROV1 ovarian): > 100 µM | TGI (K-562 leukemia): > 100 µM | TGI (KM12 colon): > 100 µM | TGI (LOX IMVI melanoma): > 100 µM | TGI (M14 melanoma): > 100 µM | TGI (MALME-3M melanoma): > 100 µM | TGI (MCF7 breast): > 100 µM | TGI (MDA-MB-231 breast): > 100 µM | TGI (MDA-MB-435): > 100 µM | TGI (MDA-N): > 100 µM | TGI (MOLT-4 leukemia): > 100 µM | TGI (NCI-H226 lung): > 100 µM | TGI (NCI-H23 lung): > 100 µM | TGI (NCI-H460 lung): 86.1 µM | TGI (NCI-H522 lung): > 100 µM | TGI (NCI/ADR-RES ovarian): > 100 µM | TGI (OVCAR-3 ovarian): > 100 µM | TGI (OVCAR-4 ovarian): > 100 µM | TGI (OVCAR-5 ovarian): > 100 µM | TGI (OVCAR-8 ovarian): > 100 µM | TGI (PC-3 prostate): > 100 µM | TGI (RPMI-8226 leukemia): > 100 µM | TGI (RXF 393 renal): 45.8 µM | TGI (SF-268 CNS): > 100 µM | TGI (SF-295 CNS): > 100 µM | TGI (SF-539 CNS): > 100 µM | TGI (SK-MEL-2 melanoma): > 100 µM | TGI (SK-MEL-28 melanoma): > 100 µM | TGI (SK-MEL-5 melanoma): > 100 µM | TGI (SK-OV-3 ovarian): 84.9 µM | TGI (SN12C renal): > 100 µM | TGI (SNB-75 CNS): > 100 µM | TGI (SR leukemia): > 100 µM | TGI (SW-620 colon): > 100 µM | TGI (T-47D breast): > 100 µM | TGI (TK-10 renal): > 100 µM | TGI (U251 CNS): > 100 µM | TGI (UACC-257 melanoma): > 100 µM | TGI (UACC-62 melanoma): > 100 µM | TGI (UO-31 renal): 60.8 µM

Cc1cc(OCc2nc(N)nc(N)c2-c2ccc(Cl)c(Cl)c2)ccc1[N+](=O)[O-]
TGI (786-0 renal): 22.3 µM | TGI (A498 renal): 1.3 µM | TGI (A549 NSCLC): > 100 µM | TGI (ACHN renal): 2.37 µM | TGI (BT-549 breast): 12.2 µM | TGI (CAKI-1 renal): 31.8 µM | TGI (CCRF-CEM leukemia): 2.27 µM | TGI (COLO 205 colon): 18.9 µM | TGI (DU-145 prostate): > 65 µM | TGI (EKVX NSCLC): 45 µM | TGI (HCT-116 colon): 16 µM | TGI (HCT-15 colon): 27.4 µM | TGI (HL-60(TB) leukemia): 3.56 µM | TGI (HOP-62 NSCLC): 12 µM | TGI (HOP-92 NSCLC): > 60 µM | TGI (HS 578T breast): > 88.2 µM | TGI (HT29 colon): 18.1 µM | TGI (IGROV1 ovarian): > 41.1 µM | TGI (K-562 leukemia): > 100 µM | TGI (KM12 colon): 33.8 µM | TGI (LOX IMVI melanoma): 37.8 µM | TGI (M14 melanoma): 10.7 µM | TGI (MALME-3M melanoma): 29.5 µM | TGI (MCF7 breast): 8.15 µM | TGI (MDA-MB-231 breast): 7.24 µM | TGI (MDA-MB-435): 21.5 µM | TGI (MDA-N): 22.9 µM | TGI (MOLT-4 leukemia): > 27.5 µM | TGI (NCI-H226 lung): 28.6 µM | TGI (NCI-H23 lung): 4.79 µM | TGI (NCI-H460 lung): 4.88 µM | TGI (NCI-H522 lung): 10.6 µM | TGI (NCI/ADR-RES ovarian): 18.6 µM | TGI (OVCAR-3 ovarian): 3.29 µM | TGI (OVCAR-4 ovarian): 39.1 µM | TGI (OVCAR-5 ovarian): 47 µM | TGI (OVCAR-8 ovarian): 34 µM | TGI (PC-3 prostate): 11.7 µM | TGI (RPMI-8226 leukemia): > 78.7 µM | TGI (RXF 393 renal): 21.6 µM | TGI (SF-268 CNS): 36.5 µM | TGI (SF-295 CNS): 4.72 µM | TGI (SF-539 CNS): 22.5 µM | TGI (SK-MEL-2 melanoma): 15.1 µM | TGI (SK-MEL-28 melanoma): 40.8 µM | TGI (SK-MEL-5 melanoma): 15 µM | TGI (SK-OV-3 ovarian): > 63.3 µM | TGI (SN12C renal): 25.9 µM | TGI (SNB-19 CNS): > 55.1 µM | TGI (SNB-75 CNS): 13.7 µM | TGI (SR leukemia): 0.106 µM | TGI (SW-620 colon): > 63.6 µM | TGI (T-47D breast): > 51.5 µM | TGI (TK-10 renal): 13.4 µM | TGI (U251 CNS): 12.3 µM | TGI (UACC-257 melanoma): 3.28 µM | TGI (UACC-62 melanoma): 1.88 µM | TGI (UO-31 renal): 30.5 µM
